Test results as given in doi:10.1101/2023.03.24.534094v2 (biorxiv, 2023).
Like-named read-outs stand apart in the source and are kept apart here. Each block holds one compound with its values, some of them ahead of it.

Key:
Assay in all cases: biochemical
BRAF = BRAF (Homo sapiens, UniProt P15056)
FLT1 = FLT1 (Homo sapiens, UniProt P17948)
CHK2 = CHK2 (Homo sapiens, UniProt O96017)
ULK3 = biological target: T1, ULK3 (Homo sapiens, UniProt Q6PHR2)
T1 sequence (Q6PHR2 1-472): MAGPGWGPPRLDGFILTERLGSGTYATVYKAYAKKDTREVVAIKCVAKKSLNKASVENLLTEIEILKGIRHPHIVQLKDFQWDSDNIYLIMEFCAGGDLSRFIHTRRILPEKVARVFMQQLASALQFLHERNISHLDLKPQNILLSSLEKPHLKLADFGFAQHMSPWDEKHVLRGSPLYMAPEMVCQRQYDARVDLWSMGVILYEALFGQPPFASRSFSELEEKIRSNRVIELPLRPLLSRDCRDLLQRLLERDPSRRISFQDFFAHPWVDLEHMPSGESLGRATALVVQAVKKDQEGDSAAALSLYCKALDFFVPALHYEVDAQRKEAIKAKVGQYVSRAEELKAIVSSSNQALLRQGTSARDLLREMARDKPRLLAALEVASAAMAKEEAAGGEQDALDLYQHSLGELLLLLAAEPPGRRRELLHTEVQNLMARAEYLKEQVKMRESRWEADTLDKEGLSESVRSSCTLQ

CaMK1g = CaMK1g (Homo sapiens, UniProt Q96NX5)
EpHA4 = EpHA4 (Homo sapiens, UniProt P54764)
MAPKAPK2 = MAPKAPK2 (Homo sapiens, UniProt P49137)
OSR1 = OSR1 (Homo sapiens, UniProt O95747)
DMPK1 = biological target: T2, DMPK1 (Homo sapiens, UniProt Q09013)
T2 sequence (Q09013 1-629): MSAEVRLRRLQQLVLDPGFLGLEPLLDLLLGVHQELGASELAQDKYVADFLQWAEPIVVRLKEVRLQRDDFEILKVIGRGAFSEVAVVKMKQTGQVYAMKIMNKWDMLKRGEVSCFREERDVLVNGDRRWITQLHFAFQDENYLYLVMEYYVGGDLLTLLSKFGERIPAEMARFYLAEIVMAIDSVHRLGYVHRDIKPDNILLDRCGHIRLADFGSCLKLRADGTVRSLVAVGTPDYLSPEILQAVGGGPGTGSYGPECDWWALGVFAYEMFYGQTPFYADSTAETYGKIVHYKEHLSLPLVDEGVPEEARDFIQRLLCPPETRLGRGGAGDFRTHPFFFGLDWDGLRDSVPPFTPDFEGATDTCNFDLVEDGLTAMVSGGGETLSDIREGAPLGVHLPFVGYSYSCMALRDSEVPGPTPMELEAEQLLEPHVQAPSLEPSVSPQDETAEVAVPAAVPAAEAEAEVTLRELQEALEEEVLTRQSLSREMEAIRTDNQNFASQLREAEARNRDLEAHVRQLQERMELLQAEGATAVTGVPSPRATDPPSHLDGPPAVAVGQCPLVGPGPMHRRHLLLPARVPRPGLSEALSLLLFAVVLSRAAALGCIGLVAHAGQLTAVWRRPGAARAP

CaMK2d = CaMK2d (Homo sapiens, UniProt Q13557)
DCAMKL1 = biological target: T3, DCAMKL1 (Homo sapiens, UniProt O15075)
T3 sequence (O15075 1-740): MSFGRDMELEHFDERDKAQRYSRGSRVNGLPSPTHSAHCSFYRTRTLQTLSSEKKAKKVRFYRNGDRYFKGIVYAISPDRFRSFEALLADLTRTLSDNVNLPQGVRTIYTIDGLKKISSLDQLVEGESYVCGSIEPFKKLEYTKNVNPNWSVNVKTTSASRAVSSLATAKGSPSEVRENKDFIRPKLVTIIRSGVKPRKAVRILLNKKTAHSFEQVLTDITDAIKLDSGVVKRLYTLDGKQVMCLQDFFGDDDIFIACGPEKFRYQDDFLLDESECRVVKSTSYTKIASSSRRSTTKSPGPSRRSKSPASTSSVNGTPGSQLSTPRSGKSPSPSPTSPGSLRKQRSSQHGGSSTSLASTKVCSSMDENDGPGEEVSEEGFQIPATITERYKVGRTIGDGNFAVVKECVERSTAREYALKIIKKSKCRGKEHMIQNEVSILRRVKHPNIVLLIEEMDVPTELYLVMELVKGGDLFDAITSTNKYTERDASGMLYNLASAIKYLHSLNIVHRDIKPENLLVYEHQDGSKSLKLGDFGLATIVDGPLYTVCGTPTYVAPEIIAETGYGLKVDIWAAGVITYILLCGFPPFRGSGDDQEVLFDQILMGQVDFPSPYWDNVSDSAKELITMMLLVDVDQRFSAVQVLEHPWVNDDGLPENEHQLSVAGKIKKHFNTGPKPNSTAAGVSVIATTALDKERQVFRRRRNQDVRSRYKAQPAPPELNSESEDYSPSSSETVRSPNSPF

FES = FES (Homo sapiens, UniProt P07332)
Chain of FES (P07332 whole entry): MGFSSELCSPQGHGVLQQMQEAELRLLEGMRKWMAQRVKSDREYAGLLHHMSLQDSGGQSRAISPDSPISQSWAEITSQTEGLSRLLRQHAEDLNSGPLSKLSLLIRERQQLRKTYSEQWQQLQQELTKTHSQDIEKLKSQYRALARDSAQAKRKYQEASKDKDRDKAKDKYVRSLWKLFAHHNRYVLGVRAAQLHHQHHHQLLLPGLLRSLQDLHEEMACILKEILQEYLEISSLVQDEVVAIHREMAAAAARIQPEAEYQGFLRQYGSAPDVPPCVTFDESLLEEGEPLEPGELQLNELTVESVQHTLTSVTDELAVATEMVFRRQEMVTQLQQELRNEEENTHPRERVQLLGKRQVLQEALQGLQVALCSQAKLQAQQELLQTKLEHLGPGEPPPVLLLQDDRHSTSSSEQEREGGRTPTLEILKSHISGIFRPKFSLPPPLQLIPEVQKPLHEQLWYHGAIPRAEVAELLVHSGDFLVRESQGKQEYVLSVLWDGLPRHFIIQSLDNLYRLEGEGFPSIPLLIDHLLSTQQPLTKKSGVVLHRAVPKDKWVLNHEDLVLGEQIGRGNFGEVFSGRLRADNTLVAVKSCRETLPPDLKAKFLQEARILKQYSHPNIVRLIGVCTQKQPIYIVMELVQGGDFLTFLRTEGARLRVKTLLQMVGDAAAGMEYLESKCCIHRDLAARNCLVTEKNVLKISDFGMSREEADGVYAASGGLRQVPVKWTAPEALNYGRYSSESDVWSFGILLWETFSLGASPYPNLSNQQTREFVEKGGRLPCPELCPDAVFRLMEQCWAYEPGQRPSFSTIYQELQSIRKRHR

Chain of BRAF (P15056 whole entry): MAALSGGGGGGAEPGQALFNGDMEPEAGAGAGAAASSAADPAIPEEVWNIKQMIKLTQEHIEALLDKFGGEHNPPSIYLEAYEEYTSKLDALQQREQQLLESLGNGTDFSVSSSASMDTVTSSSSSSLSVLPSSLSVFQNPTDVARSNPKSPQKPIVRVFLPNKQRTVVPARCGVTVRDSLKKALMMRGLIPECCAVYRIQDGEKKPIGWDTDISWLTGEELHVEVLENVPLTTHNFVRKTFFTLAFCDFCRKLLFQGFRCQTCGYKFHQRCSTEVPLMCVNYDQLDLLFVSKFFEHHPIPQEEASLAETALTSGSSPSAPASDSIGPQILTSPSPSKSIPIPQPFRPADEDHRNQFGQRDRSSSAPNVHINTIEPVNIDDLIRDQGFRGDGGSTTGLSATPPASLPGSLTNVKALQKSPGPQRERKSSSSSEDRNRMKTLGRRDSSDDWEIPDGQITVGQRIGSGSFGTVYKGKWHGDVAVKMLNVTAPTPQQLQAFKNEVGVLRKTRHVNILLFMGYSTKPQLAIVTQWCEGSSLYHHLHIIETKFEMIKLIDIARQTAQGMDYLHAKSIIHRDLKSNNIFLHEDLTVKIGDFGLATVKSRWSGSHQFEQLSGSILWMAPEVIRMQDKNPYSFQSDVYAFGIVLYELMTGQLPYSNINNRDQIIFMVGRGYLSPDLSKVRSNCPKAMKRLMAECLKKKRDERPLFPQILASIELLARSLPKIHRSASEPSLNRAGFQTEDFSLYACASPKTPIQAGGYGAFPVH
Chain of MAPKAPK2 (P49137 whole entry): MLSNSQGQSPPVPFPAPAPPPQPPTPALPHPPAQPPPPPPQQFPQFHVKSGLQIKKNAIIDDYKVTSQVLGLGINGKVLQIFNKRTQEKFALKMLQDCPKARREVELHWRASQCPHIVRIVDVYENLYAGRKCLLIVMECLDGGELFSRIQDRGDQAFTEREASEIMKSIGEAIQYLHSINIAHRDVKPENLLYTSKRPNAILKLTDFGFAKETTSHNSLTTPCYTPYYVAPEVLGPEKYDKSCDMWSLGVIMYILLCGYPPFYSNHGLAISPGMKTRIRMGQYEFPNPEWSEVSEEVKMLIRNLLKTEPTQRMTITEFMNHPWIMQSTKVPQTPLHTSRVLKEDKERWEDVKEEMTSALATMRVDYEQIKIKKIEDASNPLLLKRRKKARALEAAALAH
Chain of EpHA4 (P54764 whole entry): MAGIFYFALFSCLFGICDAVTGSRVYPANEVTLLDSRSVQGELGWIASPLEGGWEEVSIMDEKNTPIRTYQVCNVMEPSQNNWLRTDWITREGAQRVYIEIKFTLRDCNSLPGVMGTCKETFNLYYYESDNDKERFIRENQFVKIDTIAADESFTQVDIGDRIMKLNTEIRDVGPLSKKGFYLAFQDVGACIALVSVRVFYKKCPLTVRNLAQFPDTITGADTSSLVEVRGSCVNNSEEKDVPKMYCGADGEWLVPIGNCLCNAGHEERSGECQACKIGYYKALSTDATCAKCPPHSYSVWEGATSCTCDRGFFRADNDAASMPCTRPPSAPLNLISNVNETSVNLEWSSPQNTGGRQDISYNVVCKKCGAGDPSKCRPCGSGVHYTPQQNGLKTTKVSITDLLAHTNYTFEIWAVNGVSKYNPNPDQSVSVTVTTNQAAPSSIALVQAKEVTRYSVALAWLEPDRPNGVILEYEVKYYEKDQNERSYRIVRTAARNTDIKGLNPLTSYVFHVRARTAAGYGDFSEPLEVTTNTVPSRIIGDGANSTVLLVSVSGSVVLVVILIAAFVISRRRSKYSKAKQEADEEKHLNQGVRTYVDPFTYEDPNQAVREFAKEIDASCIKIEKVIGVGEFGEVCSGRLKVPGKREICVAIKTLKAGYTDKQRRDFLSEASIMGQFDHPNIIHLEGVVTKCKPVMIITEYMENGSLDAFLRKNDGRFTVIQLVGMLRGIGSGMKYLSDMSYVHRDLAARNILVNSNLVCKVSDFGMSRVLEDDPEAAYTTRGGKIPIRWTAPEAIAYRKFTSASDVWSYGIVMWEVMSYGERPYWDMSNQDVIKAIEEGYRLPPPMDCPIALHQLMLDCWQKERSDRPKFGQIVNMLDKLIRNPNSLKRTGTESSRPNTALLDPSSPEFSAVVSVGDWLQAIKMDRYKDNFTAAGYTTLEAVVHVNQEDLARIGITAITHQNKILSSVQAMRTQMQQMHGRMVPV
Chain of CaMK1g (Q96NX5 whole entry): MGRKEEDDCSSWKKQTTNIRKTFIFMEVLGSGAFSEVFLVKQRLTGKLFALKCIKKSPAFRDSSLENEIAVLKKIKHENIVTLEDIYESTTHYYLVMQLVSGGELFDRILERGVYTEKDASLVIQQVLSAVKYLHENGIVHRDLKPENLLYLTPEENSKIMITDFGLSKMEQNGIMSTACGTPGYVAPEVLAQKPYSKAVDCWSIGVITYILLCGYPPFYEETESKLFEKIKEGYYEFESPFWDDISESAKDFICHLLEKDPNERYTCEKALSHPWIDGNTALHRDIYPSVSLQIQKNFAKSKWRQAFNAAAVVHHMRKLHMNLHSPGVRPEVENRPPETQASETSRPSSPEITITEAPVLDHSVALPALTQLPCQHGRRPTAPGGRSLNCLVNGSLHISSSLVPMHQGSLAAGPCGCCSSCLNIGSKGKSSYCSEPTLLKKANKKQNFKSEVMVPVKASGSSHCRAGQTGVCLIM
Chain of FLT1 (P17948 whole entry): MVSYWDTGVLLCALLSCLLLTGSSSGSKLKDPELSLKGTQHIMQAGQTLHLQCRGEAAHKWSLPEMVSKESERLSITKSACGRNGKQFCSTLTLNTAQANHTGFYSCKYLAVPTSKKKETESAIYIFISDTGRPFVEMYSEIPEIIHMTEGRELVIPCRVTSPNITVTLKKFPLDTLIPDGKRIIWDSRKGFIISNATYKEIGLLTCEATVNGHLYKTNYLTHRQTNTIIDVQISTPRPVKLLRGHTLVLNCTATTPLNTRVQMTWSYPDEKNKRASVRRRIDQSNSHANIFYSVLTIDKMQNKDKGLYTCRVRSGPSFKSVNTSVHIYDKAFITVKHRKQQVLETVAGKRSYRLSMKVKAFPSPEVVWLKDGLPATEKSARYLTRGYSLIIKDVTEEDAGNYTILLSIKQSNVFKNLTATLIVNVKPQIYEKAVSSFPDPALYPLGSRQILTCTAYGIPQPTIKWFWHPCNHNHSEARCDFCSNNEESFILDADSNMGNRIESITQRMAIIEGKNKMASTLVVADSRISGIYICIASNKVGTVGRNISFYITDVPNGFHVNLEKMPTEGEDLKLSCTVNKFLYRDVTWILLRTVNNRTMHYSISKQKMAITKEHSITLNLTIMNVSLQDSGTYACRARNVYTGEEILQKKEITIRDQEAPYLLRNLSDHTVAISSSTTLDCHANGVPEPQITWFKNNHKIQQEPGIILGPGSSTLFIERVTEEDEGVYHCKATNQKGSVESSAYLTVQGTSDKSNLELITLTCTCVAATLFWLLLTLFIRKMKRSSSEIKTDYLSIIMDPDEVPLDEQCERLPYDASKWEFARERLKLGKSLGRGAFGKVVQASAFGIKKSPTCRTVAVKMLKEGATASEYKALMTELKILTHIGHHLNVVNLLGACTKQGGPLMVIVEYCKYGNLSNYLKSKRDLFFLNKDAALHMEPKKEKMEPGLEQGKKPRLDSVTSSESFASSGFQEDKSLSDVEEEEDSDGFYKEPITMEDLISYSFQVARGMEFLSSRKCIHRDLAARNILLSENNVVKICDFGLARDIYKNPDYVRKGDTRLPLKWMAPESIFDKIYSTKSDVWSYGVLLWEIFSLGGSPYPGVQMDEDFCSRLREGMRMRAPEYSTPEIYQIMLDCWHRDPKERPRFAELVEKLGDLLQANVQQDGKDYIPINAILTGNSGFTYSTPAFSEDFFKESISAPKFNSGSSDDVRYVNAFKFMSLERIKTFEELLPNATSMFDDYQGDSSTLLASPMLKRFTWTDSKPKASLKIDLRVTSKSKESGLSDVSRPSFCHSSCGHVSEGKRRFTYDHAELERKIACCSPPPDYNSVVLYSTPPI

SMILES: CNc1ncc2cc(-c3cc(Br)ccc3Br)c(=O)n(CCCCN)c2n1 [compound 11, 8-(4-Aminobutyl)-6-(2,5-dibromophenyl)-2-(methylamino)pyrido[2,3-d]pyrimidin-7(8H)-one]
ΔTm at 10 µM (BRAF; read-out: dTm 11): 11.6 °C | ΔTm at 10 µM (FLT1; read-out: dTm 11): 5.8 °C | ΔTm at 10 µM (CHK2; read-out: dTm 11): 0.4 °C | ΔTm at 10 µM (ULK3; read-out: dTm 11): 1.3 °C | ΔTm at 10 µM (CaMK1g; read-out: dTm 11): 0.8 °C | ΔTm at 10 µM (EpHA4; read-out: dTm 11): 4.3 °C | ΔTm at 10 µM (MAPKAPK2; read-out: dTm 11): 0 °C | ΔTm at 10 µM (OSR1; read-out: dTm 11): 0.4 °C | ΔTm at 10 µM (DMPK1; read-out: dTm 11): 1.7 °C | ΔTm at 10 µM (CaMK2d; read-out: dTm 11): 0.2 °C | ΔTm at 10 µM (DCAMKL1; read-out: dTm 11): 1.1 °C | ΔTm at 10 µM (FES; read-out: dTm 11): 2.8 °C

SMILES: CNc1ncc2cc(-c3cc(C(F)(F)F)ccc3Cl)c(=O)n(CCCCN)c2n1 [compound 9, 8-(4-Aminobutyl)-6-(2-chloro-5-(trifluoromethyl)phenyl)-2-(methylamino)pyrido[2,3-d]pyrimidin-7(8H)-one]
ΔTm at 10 µM (BRAF; read-out: dTm 9): 10.4 °C | ΔTm at 10 µM (FLT1; read-out: dTm 9): 5.3 °C | ΔTm at 10 µM (CHK2; read-out: dTm 9): 0.5 °C | ΔTm at 10 µM (ULK3; read-out: dTm 9): 0.6 °C | ΔTm at 10 µM (CaMK1g; read-out: dTm 9): 0.6 °C | ΔTm at 10 µM (EpHA4; read-out: dTm 9): 2.9 °C | ΔTm at 10 µM (MAPKAPK2; read-out: dTm 9): -0.1 °C | ΔTm at 10 µM (OSR1; read-out: dTm 9): 0.3 °C | ΔTm at 10 µM (DMPK1; read-out: dTm 9): 1.4 °C | ΔTm at 10 µM (CaMK2d; read-out: dTm 9): 0.2 °C | ΔTm at 10 µM (DCAMKL1; read-out: dTm 9): 0.5 °C | ΔTm at 10 µM (FES; read-out: dTm 9): 1.4 °C

SMILES: CNc1ncc2cc(-c3cc(Cl)ccc3Br)c(=O)n(CCCCN)c2n1 [compound 10, 8-(4-Aminobutyl)-6-(2-bromo-5-chlorophenyl)-2-(methylamino)pyrido[2,3-d]pyrimidin-7(8H)-one]
ΔTm at 10 µM (BRAF; read-out: dTm 10): 11.4 °C | ΔTm at 10 µM (FLT1; read-out: dTm 10): 5 °C | ΔTm at 10 µM (CHK2; read-out: dTm 10): 0.2 °C | ΔTm at 10 µM (ULK3; read-out: dTm 10): 1.1 °C | ΔTm at 10 µM (CaMK1g; read-out: dTm 10): 0.7 °C | ΔTm at 10 µM (EpHA4; read-out: dTm 10): 5.1 °C | ΔTm at 10 µM (MAPKAPK2; read-out: dTm 10): 0 °C | ΔTm at 10 µM (OSR1; read-out: dTm 10): -0.2 °C | ΔTm at 10 µM (DMPK1; read-out: dTm 10): 1.8 °C | ΔTm at 10 µM (CaMK2d; read-out: dTm 10): 0.5 °C | ΔTm at 10 µM (DCAMKL1; read-out: dTm 10): 0.9 °C | ΔTm at 10 µM (FES; read-out: dTm 10): 2.5 °C

Further lines, results first:

ΔTm at 10 µM (BRAF; read-out: dTm 12): 2.3 °C | ΔTm at 10 µM (FLT1; read-out: dTm 12): 2.8 °C | ΔTm at 10 µM (CHK2; read-out: dTm 12): 3.3 °C | ΔTm at 10 µM (ULK3; read-out: dTm 12): 6.7 °C | ΔTm at 10 µM (CaMK1g; read-out: dTm 12): 3.4 °C | ΔTm at 10 µM (EpHA4; read-out: dTm 12): 1.6 °C | ΔTm at 10 µM (MAPKAPK2; read-out: dTm 12): -0.3 °C | ΔTm at 10 µM (OSR1; read-out: dTm 12): -0.2 °C | ΔTm at 10 µM (DMPK1; read-out: dTm 12): -0.1 °C | ΔTm at 10 µM (CaMK2d; read-out: dTm 12): -0.2 °C | ΔTm at 10 µM (DCAMKL1; read-out: dTm 12): -1.6 °C | ΔTm at 10 µM (FES; read-out: dTm 12): 5.4 °C
SMILES: CNc1ncc2cc(-c3cc(F)c(-c4cccc(C)n4)cc3F)c(=O)n(CCCCN)c2n1 [compound 12, 8-(4-Aminobutyl)-6-(2,5-difluoro-4-(6-methylpyridin-2-yl)phenyl)-2-(methylamino)pyrido[2,3-d]pyrimidin-7(8H)-one]

ΔTm at 10 µM (BRAF; read-out: dTm 8): 10.8 °C | ΔTm at 10 µM (FLT1; read-out: dTm 8): 6 °C | ΔTm at 10 µM (CHK2; read-out: dTm 8): 0.4 °C | ΔTm at 10 µM (ULK3; read-out: dTm 8): 1 °C | ΔTm at 10 µM (CaMK1g; read-out: dTm 8): 1.1 °C | ΔTm at 10 µM (EpHA4; read-out: dTm 8): 4.7 °C | ΔTm at 10 µM (MAPKAPK2; read-out: dTm 8): 0 °C | ΔTm at 10 µM (OSR1; read-out: dTm 8): 0.3 °C | ΔTm at 10 µM (DMPK1; read-out: dTm 8): 1.3 °C | ΔTm at 10 µM (CaMK2d; read-out: dTm 8): 0.4 °C | ΔTm at 10 µM (DCAMKL1; read-out: dTm 8): 1.2 °C | ΔTm at 10 µM (FES; read-out: dTm 8): 2.5 °C
SMILES: CNc1ncc2cc(-c3cc(Cl)ccc3Cl)c(=O)n(CCCCN)c2n1 [compound 8, 8-(4-Aminobutyl)-6-(2,5-dichlorophenyl)-2-(methylamino)pyrido[2,3-d]pyrimidin-7(8H)-one]
